Our source for the Ki values is paper PMC12146557 (iScience, 2025).

The target of test [1] is T1, PfUbc13 (Plasmodium falciparum ubiquitin-conjugating enzyme 13) (Plasmodium falciparum, UniProt Q8I3J4).
T1 sequence (Q8I3J4 1-152): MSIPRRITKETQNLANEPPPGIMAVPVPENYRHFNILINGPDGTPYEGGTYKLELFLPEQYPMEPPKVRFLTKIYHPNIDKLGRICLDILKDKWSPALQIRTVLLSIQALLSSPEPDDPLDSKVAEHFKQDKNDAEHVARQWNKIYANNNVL
T1 sequence (Q8I5F9 1-1140 partner): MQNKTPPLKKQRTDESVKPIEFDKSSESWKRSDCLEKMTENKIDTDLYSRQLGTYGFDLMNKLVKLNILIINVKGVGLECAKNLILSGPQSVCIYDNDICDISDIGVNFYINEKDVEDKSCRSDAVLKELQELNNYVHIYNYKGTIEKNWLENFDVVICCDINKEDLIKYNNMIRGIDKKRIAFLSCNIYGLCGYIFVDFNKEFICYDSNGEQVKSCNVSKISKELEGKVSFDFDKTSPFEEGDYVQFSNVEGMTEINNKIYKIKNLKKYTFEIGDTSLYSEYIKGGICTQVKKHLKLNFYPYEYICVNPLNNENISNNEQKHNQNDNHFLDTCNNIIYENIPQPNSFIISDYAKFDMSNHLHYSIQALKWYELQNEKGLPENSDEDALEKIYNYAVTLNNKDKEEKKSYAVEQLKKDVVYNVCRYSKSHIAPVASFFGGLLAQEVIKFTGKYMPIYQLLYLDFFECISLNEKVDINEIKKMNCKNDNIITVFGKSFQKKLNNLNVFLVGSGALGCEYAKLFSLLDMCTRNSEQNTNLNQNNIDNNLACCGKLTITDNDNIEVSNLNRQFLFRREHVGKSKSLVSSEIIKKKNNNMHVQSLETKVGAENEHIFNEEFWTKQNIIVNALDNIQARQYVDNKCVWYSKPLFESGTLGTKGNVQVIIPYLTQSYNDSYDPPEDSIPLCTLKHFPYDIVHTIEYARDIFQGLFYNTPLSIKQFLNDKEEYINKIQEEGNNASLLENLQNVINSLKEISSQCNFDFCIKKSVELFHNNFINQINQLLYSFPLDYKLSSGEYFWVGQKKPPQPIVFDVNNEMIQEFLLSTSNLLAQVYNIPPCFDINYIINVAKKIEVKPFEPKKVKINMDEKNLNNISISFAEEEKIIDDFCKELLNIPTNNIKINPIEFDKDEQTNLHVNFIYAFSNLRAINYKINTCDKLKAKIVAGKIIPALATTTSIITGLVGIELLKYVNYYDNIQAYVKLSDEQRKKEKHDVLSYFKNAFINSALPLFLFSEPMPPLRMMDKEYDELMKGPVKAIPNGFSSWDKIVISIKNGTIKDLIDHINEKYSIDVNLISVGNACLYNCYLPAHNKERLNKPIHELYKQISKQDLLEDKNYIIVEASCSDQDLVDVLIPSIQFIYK
In words: LC-HRMS of tryptic peptides. The format is biochemical.

A further test has as its target T2, HsUbc13 (human Ubc13) (Homo sapiens, UniProt P61088).
T2 sequence (P61088 1-152): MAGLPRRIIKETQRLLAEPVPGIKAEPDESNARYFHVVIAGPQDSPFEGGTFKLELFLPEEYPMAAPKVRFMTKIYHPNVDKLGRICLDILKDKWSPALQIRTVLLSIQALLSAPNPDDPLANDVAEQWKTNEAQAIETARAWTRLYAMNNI
In words: LC-HRMS of tryptic peptides. The format is biochemical.

Usually Ki stands for a dissociation constant, usually derived from enzyme kinetics or from competition with a known ligand. Take `Cc1ccc(S(=O)(=O)c2ccc([N+](=O)[O-])o2)cc1` [NSC697923]: the Ki in test [1] was found to be 360 ± 110 nM; on HsUbc13 (human Ubc13) it was 280 ± 70 nM.
